Assay [1] has as its system BJAB cells. Nature of the assay: anti-BCR-induced CD69 upregulation in naive BJAB cells. The format is cell-based.
For assay [2], the system named is Jurkat cells. Nature of the assay: anti-TCR-induced CD69 upregulation in naive Jurkat cells. The format is cell-based, human. The procedure: Stimulation: For CD69 upregulation experiments, tTA-Jurkat cells were split to 2.5×10^5 cells/ml 24 hours prior to stimulation. Cells were spun and resuspended at 5×10^5 cells/ml in fresh complete RPMI medium in the presence of 100 ng/ml […] (anti-Jurkat clonotypic TCR) or 5 ng/ml PMA hybridoma supernatant for 20-26 hours at 37° C., and then assayed for surface CD69 expression. Cell surface marker analysis: Jurkat-N cells were stained with an APC-conjugated mouse monoclonal anti-human CD69 antibody (Caltag) at 4° C. for 20 minutes and analyzed using a Facscalibur instrument (Becton Dickinson) with Cellquest software. Cell sorts were performed on a MoFlo (Cytomation).

For assay [3], the target named is T1, EDG-1 (Homo sapiens, UniProt P21453). As to the kind of experiment: anti-BCR induced CD69 upregulation in BJAB cells expressing TIG-EDG-1 constructs. It is filed as cell-based.
T1 sequence (P21453 whole entry): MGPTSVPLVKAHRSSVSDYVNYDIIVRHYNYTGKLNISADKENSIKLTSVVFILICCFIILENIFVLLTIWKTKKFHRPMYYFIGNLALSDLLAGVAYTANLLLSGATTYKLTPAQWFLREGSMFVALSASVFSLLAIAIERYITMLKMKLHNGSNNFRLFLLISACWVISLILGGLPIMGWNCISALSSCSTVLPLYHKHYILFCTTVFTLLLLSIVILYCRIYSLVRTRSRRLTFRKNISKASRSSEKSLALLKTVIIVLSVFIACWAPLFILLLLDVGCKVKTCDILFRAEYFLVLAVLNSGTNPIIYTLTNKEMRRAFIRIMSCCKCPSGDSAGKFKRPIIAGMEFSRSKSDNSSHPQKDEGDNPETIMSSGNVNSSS
Assay [4] concerns EDG-1. The assay is described as above. The format is cell-based.
Assay [5] relates to Jurkat cells. Nature of the assay: SPP-induced migration assay in Jurkat cells. The format is cell-based, human. From the text:
(§1) “Lymphocyte migration” refers to migration of B and T lymphocytes to and from primary and secondary lymphoid organs (e.g., bone marrow, thymus, lymph nodes, spleen, Peyer's patch, and tonsils), the periphery, and non-lymphoid tissues via the blood stream, lymphatic vessels, and by penetration of capillary walls (see, e.g., Paul, Immunology (3rd ed., 1993) (Chapters 4 and 6)). […] SPP and LPA are present in serum and are produced by a number of cells, including platelets and fibroblasts. Ligand-induced lymphocyte migration can be measured using the assay described in FIG. 33A, in which lymphocytes migrate toward the ligand from an upper to a lower chamber. The sphingolipid analog compound 2-amino-2(2-[4-octylphenyl]ethyl)-1,3-propanediol hydrochloride and analogs thereof inhibit such migration. The C-terminus of EDG-1 appears to be involved in migration. Such domains (e.g., the cytoplasmic tail of EDG-1) can be used in high throughput binding assays for compounds that modulate lymphocyte migration.
(§2) As described above, in one embodiment, lymphocyte activation is measured by contacting T cells comprising an EDG target with a potential modulator and activating the cells with an anti-TCR antibody. […] In another embodiment, lymphocyte migration is measured by observing T cell migration from an upper to a lower chamber containing an EDG ligand such as SPP.

Assay [6] relates to primary T cell. Nature of the assay: SPP-induced primary T cell migration. The format is cell-based. Particulars: primary T cells.
Description: as §1, §2

For assay [7], the target named is T1, EDG-1. Nature of the assay: EDG-1 wild-type enhanced SPP-induced migration in Jurkat cells. The note with it: Jurkat cells expressing EDG-1 wild-type. The format is cell-based. From the text: (§3) “Lymphocyte migration” refers to migration of B and T lymphocytes to and from primary and secondary lymphoid organs (e.g., bone marrow, thymus, lymph nodes, spleen, Peyer's patch, and tonsils), the periphery, and non-lymphoid tissues via the blood stream, lymphatic vessels, and by penetration of capillary walls (see, e.g., Paul, Immunology (3rd ed., 1993) (Chapters 4 and 6)). […] SPP and LPA are present in serum and are produced by a number of cells, including platelets and fibroblasts. Ligand-induced lymphocyte migration can be measured using the assay described in FIG. 33A, in which lymphocytes migrate toward the ligand from an upper to a lower chamber.
(§4) As described above, in one embodiment, lymphocyte activation is measured by contacting T cells comprising an EDG target with a potential modulator and activating the cells with an anti-TCR antibody. Modulation of T cell activation is identified by screening for cell surface marker expression, e.g., CD69 expression levels, using fluorescent antibodies and FACS sorting. In another embodiment, lymphocyte migration is measured by observing T cell migration from an upper to a lower chamber containing an EDG ligand such as SPP.

For assay [8], the target named is T1, EDG-1. Nature of the assay: EDG-1 wild-type induced CD69 inhibition in Jurkat cells. The note with it: Jurkat cells expressing EDG-1 wild-type. It is filed as cell-based.
Description: Stimulation: For CD69 upregulation experiments, tTA-Jurkat cells were split to 2.5×10^5 cells/ml 24 hours prior to stimulation. Cells were spun and resuspended at 5×10^5 cells/ml in fresh complete RPMI medium in the presence of 100 ng/ml [MUT] (anti-Jurkat clonotypic TCR) or 5 ng/ml PMA hybridoma supernatant for 20-26 hours at 37° C., and then assayed for surface CD69 expression. Cell surface marker analysis: Jurkat-N cells were stained with an APC-conjugated mouse monoclonal anti-human CD69 antibody (Caltag) at 4° C. for 20 minutes and analyzed using a Facscalibur instrument (Becton Dickinson) with Cellquest software. Cell sorts were performed on a MoFlo (Cytomation).
For assay [9], the target named is T1, EDG-1. Nature of the assay: EDG-1 mediated SPP-induced lymphocyte migration. It is filed as cell-based. Particulars: lymphocytes migrating toward ligand from upper to lower chamber.
Description: as §3, §4

The structures appear in SMILES notation. Entries after “also recorded” stand apart in the source; their conditions may differ.

On to `CCCCCCCCCCCCC/C=C/[C@@H](O)[C@@H](N)COP(=O)(O)O` [SPP, sphingosine-1-phosphate], for which the “effect on anti-BCR-induced CD69 upregulation” value in [1] (in the presence of CS-FBS) and in assay [1] (regular serum) was “no effect” in each case. Moreover, the “effect on anti-TCR-induced CD69 upregulation” value in assay [2] (in the presence of CS-FBS) and in assay [2] (regular serum) was “no effect” throughout. The “effect on wild-type EDG-1 inhibition of anti-BCR induced CD69 upregulation” value in assay [3] (BJAB cells expressing wild-type EDG-1) is “potentiates”. The “dose dependence of wild-type EDG-1 inhibition of anti-BCR induced CD69 upregulation” value in assay [3] (cells overexpressing wild-type EDG-1, SPP added) is listed as “dose-dependent manner; also recorded: dose dependent manner”. The “effect on anti-BCR induced CD69 upregulation” value in assay [4] (BJAB cells expressing TIG vector) is reported as “no effect”. The “effect on the inhibition of EDG-1 mediated anti-BCR induced CD69 upregulation” value in assay [4] (BJAB cells, FIGS. 29 and 30) is listed as “no effect”. The “migration of Jurkat cells” value in assay [5] (Jurkat cells migrating toward ligand) was “induced migration”.

Take `CCCCCCCCc1ccc(CCC(N)(CO)CO)cc1.Cl` [FTY720, 2-amino-2(2-[4-octylphenyl]ethyl)-1,3-propanediol hydrochloride]: the “effect on SPP-induced migration” value in [5] (Jurkat cells) is given as “no effect”. Further, the “effect on SPP-induced primary T cell migration” value in assay [6] is “inhibits”. In addition, the “effect on EDG-1 wild-type enhanced SPP-induced migration” value in assay [7] was “inhibits”. The “effect on EDG-1 wild-type induced CD69 inhibition” value in [8] is “no effect”. In addition, the “effect on EDG-1 mediated SPP-induced (ligand-induced) lymphocyte migration” value in assay [9] (listed as 2-amino-2(2-[4-octylphenyl]ethyl)-1,3-propanediol hydrochloride) was “inhibit”; in assay [9] (hydrochloride) it was “blocked”.

Values taken from patent US7521192B2, “EDG: modulators of lymphocyte activation and migration” (Rigel Pharmaceuticals, Inc., priority 2001, dated 2009).
